Assay results from patent US12545673B2, “Imidazopyridine derivative and pharmaceutical composition comprising same as active ingredient” (TSD LIFE SCIENCES CO., LTD., priority 2019, dated 2026).
Read-outs that look alike come from different tables or passages of the source.

What was measured:
[1] = tested on: colorectal cancer cell line HT-29; assay: Cancer cell proliferation inhibitory activity evaluation 1 (CCK-8), HT-29; assay type: cell-based; settings: Homo sapiens, HT-29; 10 μM, 72 hours, CCK-8; read-out: Cancer cell proliferation inhibitory activity HT29
Method: (§1) In order to identify whether the compound has anticancer activity, the human breast cancer cell line MDA-MB-231, the colorectal cancer cell line HT-29, the acute myeloid leukemia cell line U937, and the chronic myeloid leukemia cell line K562 were used. The cell line was cultured using RPMI-1640 medium containing 10% fetal bovine serum. Welgene products were used as the medium, and hyclone products were used for fetal bovine serum, and 1% of antibiotics for cell culture from Gibco were used as the culture medium.

TGF-β1 = assay: Fibrosis inhibition evaluation 2, palmitic acid-induced HepG2, real-time PCR, TGF-β1
[2] = tested on: acute myeloid leukemia cell line U937; assay: Cancer cell proliferation inhibitory activity evaluation 2 (CCK-8), U937; assay type: cell-based; settings: Homo sapiens, read-out: Cancer cell proliferation inhibitory activity U937
[3] = tested on: human breast cancer cell line MDA-MB-231; assay: Cancer cell proliferation inhibitory activity evaluation 1 (CCK-8), MDA-MB-231; assay type: cell-based; settings: MDA-MB-231, 10 μM, 72 hours, CCK-8, read-out: Cancer cell proliferation inhibitory activity MDAMB231
Method: as §1

[4] = tested on: gastric cancer cell line Hs746T; assay: Cancer cell proliferation inhibitory activity evaluation 2 (CCK-8), Hs746T; assay type: cell-based; settings: Homo sapiens, 10 μM, 72 hours, CCK-8, read-out: Cancer cell proliferation inhibitory activity Hs746T
[5] = tested on: acute lymphoblastic leukemia cell line Jurkat; assay: Cancer cell proliferation inhibitory activity evaluation 2 (CCK-8), Jurkat; assay type: cell-based; settings: Homo sapiens
[6] = tested on: acute myeloid leukemia cell line U937; assay: Cancer cell proliferation inhibitory activity evaluation 1 (CCK-8), U937; assay type: cell-based; settings: Homo sapiens, U-937; 10 μM, 72 hours, CCK-8 (Table 2); read-out: Cancer cell proliferation inhibitory activity U937
Method: as §1

LRRK2 mutant (G2019S) = LRRK2 mutant (G2019S) (Homo sapiens (Human), UniProt Q5S007, G2019S); assay: Evaluation of inhibitory activity against LRRK2 (affinity bead competition binding), G2019S mutant; settings: read-out: Residual active values (%) LRRK2(G2019S)
Method: (§2) In order to identify the activity inhibitory effect on the LRRK2 wild-type and LRRK2 mutant (G2019S) kinase of the example compound according to the present disclosure, BL21-derived E. coli bacteria (E. coli) were cultured in a 24-well plate until the growth phase (log phase). After culturing, T7 phage tagged with LRRK2 wild-type or LRRK2 mutant (G2019S) was used to infect the multiplicity of infection (MOI) at 0.4. Thereafter, the E. coli bacteria were stirred at 32° C. for 90 to 150 minutes to allow dissolution. The lysate of E. coli bacteria was centrifuged (6,000×g) and filtered (0.2 μm), and the obtained tagged T7 phage […] a DNA-tagged kinase protein (LRRK2 or LRRK2 G2019S) was obtained.
(§3) After blocking the biotinylated ligand with extra biotin, it is washed with Pierce's buffer, SeaBlock (1% BSA, 0.05% Tween 20, 1 mM DTT) to remove unbound ligand and reduce non-specific binding.
(§4) The compound was prepared at a concentration of 40× in 100% DMSO and used after dilution, and all binding reactions were performed in a final volume of 0.02 ml in a 384-well plate.
(§5) The activity inhibitory effect on the LRRK2 wild-type and LRRK2 mutant (G2019S) kinases of the example compounds according to the present disclosure was measured and shown in Table 10 below.

[7] = tested on: human lung cancer cell line A549; assay: Cancer cell proliferation inhibitory activity evaluation 2 (CCK-8), A549; assay type: cell-based; settings: A549, 10 μM, 72 hours, CCK-8, read-out: Cancer cell proliferation inhibitory activity A549
[8] = tested on: chronic myeloid leukemia cell line K562; assay: Cancer cell proliferation inhibitory activity evaluation 1 (CCK-8), K562; assay type: cell-based; settings: Homo sapiens, K562; 10 μM, 72 hours, CCK-8; read-out: Cancer cell proliferation inhibitory activity K562
Method: as §1

LRRK2 wild-type = LRRK2 wild-type (Homo sapiens (Human), UniProt Q5S007); assay: Evaluation of inhibitory activity against LRRK2 (affinity bead competition binding), wild-type; settings: read-out: Residual active values (%) LRRK2
Method: as §2, §3, §4, §5

Fibronectin-1 = assay: Fibrosis inhibition evaluation 2, palmitic acid-induced HepG2, real-time PCR, Fibronectin-1
MLK2 = MLK2 (Homo sapiens (Human), UniProt Q02779); assay: Evaluation of inhibitory activity of enzyme units, MLK2 ([γ-33P]-ATP filter assay); assay type: biochemical
MLK3 = MLK3 (Homo sapiens (Human), UniProt Q16584); assay: Evaluation of inhibitory activity of enzyme units, MLK3 ([γ-33P]-ATP filter assay)
[9] = tested on: gastric cancer cell line AGS; assay: Cancer cell proliferation inhibitory activity evaluation 2 (CCK-8), AGS; assay type: cell-based; settings: Homo sapiens, read-out: Cancer cell proliferation inhibitory activity AGS
MLK1 = MLK1 (Homo sapiens (Human), UniProt P80192); assay: Evaluation of inhibitory activity of enzyme units, MLK1 ([γ-33P]-ATP filter assay); assay type: biochemical
[10] = U-937, 10 μM, 72 hours, CCK-8 (Table 3)
[11] = 10 μM, 72 hours, CCK-8, read-out: Cancer cell proliferation inhibitory activity Jurkat

Sequence of MLK3 (Q16584 whole entry, looked up): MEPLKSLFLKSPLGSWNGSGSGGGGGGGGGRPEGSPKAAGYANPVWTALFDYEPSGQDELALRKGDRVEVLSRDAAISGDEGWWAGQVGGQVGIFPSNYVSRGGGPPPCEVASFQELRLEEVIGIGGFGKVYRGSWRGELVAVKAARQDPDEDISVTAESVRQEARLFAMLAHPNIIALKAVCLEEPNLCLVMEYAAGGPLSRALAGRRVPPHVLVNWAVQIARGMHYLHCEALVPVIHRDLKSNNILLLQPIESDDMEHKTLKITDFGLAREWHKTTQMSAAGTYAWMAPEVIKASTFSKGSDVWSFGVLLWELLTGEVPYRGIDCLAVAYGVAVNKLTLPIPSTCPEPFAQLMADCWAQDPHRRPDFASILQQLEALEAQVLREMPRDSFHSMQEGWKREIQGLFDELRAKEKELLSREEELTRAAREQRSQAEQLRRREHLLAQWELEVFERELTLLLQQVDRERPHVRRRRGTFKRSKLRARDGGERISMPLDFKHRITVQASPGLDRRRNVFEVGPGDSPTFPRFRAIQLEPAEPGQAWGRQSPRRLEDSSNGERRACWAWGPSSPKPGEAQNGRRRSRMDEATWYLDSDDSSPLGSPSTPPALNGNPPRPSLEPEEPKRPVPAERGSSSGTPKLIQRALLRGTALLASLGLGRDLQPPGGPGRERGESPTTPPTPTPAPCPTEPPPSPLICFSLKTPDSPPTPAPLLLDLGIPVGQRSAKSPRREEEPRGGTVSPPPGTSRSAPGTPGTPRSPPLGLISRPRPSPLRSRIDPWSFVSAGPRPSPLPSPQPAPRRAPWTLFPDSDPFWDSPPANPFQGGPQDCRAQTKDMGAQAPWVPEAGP
Sequence of MLK2 (Q02779 whole entry, looked up): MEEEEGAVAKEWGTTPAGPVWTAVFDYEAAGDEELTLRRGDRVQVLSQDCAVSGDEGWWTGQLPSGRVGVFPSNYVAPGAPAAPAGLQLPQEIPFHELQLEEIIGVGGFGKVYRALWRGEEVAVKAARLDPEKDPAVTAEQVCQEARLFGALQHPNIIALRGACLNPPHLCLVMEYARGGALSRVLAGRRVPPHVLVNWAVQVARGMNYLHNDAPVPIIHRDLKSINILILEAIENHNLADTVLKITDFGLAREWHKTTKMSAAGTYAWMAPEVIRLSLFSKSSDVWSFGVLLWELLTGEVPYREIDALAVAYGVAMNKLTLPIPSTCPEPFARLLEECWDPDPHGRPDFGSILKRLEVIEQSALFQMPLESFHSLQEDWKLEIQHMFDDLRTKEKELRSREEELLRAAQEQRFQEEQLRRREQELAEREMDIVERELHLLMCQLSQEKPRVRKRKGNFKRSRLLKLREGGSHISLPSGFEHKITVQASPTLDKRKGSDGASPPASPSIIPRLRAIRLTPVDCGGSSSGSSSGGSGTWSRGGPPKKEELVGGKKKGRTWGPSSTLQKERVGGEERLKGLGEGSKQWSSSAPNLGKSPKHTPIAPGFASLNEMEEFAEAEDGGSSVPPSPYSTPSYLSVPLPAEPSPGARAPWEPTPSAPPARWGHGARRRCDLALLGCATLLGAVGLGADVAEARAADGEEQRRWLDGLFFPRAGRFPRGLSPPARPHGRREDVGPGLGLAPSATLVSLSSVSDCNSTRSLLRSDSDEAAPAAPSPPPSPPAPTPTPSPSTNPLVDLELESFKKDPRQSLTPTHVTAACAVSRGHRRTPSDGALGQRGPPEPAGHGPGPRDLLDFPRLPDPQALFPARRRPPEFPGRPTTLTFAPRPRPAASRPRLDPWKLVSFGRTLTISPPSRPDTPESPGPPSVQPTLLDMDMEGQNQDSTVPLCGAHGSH
Sequence of LRRK2 mutant (G2019S) (Q5S007 whole entry G2019S, looked up): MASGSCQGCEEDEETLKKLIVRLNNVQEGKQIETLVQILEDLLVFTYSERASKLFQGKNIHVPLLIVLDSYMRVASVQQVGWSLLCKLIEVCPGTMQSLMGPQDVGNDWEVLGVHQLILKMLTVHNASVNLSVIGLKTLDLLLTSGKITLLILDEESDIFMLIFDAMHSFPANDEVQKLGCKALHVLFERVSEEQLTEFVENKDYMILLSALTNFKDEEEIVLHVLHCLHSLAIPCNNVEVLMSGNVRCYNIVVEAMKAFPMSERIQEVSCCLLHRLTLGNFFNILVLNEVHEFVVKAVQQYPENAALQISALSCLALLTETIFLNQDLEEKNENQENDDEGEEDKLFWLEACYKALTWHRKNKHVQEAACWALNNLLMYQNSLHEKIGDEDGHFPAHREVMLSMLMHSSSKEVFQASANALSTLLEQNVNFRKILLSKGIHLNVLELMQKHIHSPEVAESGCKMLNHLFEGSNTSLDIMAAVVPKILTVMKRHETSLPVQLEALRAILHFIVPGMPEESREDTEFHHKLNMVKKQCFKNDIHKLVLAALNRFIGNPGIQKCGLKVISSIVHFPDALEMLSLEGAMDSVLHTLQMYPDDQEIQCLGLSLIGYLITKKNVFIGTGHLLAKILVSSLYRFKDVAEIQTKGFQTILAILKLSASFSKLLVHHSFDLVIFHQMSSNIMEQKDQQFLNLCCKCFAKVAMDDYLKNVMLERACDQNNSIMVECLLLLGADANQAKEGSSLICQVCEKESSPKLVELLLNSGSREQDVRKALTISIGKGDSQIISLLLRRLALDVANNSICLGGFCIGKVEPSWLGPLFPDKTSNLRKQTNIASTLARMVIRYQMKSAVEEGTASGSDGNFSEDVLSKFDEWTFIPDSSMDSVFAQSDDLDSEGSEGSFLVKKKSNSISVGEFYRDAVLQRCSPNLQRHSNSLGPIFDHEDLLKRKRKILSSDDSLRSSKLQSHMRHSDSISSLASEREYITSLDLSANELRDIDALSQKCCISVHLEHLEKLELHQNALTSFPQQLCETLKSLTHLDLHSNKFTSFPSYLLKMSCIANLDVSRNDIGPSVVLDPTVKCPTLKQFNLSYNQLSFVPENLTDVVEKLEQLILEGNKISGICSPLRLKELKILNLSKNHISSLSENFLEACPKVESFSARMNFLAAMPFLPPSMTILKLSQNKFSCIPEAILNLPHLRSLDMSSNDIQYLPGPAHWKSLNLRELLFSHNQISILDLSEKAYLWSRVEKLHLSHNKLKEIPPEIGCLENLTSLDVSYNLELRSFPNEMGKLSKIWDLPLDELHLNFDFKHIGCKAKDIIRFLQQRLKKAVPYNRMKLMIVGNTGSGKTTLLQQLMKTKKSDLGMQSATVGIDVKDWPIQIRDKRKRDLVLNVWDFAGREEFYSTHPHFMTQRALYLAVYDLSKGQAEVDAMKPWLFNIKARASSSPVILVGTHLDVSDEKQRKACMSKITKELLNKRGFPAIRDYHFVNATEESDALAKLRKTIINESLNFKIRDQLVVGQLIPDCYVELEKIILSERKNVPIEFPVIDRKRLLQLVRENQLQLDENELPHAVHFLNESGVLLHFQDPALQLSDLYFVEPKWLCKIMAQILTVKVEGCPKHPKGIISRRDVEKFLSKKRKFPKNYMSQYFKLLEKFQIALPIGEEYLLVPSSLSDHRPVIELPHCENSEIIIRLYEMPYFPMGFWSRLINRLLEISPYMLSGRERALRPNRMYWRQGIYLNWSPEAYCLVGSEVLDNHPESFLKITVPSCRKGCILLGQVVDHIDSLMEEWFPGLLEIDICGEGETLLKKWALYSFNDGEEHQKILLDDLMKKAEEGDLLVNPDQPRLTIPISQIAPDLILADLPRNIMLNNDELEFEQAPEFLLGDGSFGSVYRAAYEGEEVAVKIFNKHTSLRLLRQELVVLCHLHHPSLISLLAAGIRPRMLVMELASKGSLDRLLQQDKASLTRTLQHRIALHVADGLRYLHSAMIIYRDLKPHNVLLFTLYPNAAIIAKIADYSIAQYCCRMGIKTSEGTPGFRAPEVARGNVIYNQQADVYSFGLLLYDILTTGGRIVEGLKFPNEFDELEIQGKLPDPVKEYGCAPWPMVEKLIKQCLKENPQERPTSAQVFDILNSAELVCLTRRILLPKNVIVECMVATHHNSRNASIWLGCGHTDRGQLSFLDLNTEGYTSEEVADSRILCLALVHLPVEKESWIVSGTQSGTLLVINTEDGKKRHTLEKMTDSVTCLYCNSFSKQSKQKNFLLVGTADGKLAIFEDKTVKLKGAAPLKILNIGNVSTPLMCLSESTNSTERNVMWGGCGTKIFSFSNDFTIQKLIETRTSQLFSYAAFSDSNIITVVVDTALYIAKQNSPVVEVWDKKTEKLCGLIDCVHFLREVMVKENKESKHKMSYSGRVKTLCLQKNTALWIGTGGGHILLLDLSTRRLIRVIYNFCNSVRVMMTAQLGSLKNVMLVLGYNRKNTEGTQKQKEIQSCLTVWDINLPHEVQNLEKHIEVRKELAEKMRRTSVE
Sequence of LRRK2 wild-type (Q5S007 whole entry, looked up): as the sequence (Q5S007 whole entry G2019S, looked up) above, with S2019G counted along it

| SMILES | inhibition at 10 µM [1] [%] | inhibition at 10 µM [2, 10] [%] | inhibition at 10 µM [3] [%] | inhibition at 10 µM [5, 11] [%] | inhibition at 10 µM [6] [%] | inhibition at 10 µM [8] [%] | IC50 (MLK2) [nM] | IC50 (MLK3; read-out: IC50(nM) MLK3) [nM] | inhibition at 10 µM ([9]; 10 μM, 72 hours, CCK-8) [%] | other results |
| --- | --- | --- | --- | --- | --- | --- | --- | --- | --- | --- |
| CCS(=O)(=O)N1CC[C@H](Nc2c(Br)cnc3nc(-c4cc(C)n(-c5cccc(OCCN6CCOCC6)c5)c4C)[nH]c23)C1 [Example 3, (S)-6-bromo-2-(2,5-dimethyl-1-(3-(2-morpholinoethoxy)phenyl)-1H-pyrrol-3-yl)-N-(1-(ethylsulfonyl)pyrrolidine-3-yl)-1H-imidazo[4,5-b]pyridine-7-amine] | 10 to 50 | 10 to 50 | > 50 | > 50 | > 50 | > 50 |  |  |  | Relative degree of expression inhibition (%) TGF-β1 (TGF-β1): 109.05%; inhibition at 10 µM [4]: > 50%; remaining binding at 0.1 µM (LRRK2 mutant (G2019S); 100 nM): 3.5%; remaining binding at 0.5 µM (LRRK2 mutant (G2019S); 500 nM): 0.9%; inhibition at 10 µM [7]: 10 to 50%; remaining binding at 0.1 µM (LRRK2 wild-type; 100 nM): 17%; remaining binding at 0.5 µM (LRRK2 wild-type; 500 nM): 3.1%; Relative degree of expression inhibition (%) Fibronectin-1 (Fibronectin-1): 72.85% |
| CCS(=O)(=O)N1CC[C@H](Nc2c(Br)cnc3[nH]c(-c4cc(C)n(-c5ccc(C(=O)N6CCOCC6)cc5)c4C)nc23)C1 [Example 5, (S)-(4-(3-(6-bromo-7-((1-(ethylsulfonyl)pyrrolidine-3-yl)amino)-3H-imidazo[4,5-b]pyridine-2-yl)-2,5-dimethyl-1H-pyrrol-1-yl)phenyl) (morpholino) methanone] |  |  |  |  |  |  | 92 | 6 |  |  |
| CCS(=O)(=O)N1CC[C@H](Nc2c(Br)cnc3[nH]c(-c4cc(C)n(-c5cccc(C(=O)N6CCOCC6)c5)c4C)nc23)C1 [Example 6, (S)-(3-(3-(6-bromo-7-((1-(ethylsulfonyl)pyrrolidine-3-yl)amino)-3H-imidazo[4,5-b]pyridine-2-yl)-2,5-dimethyl-1H-pyrrol-1-yl)phenyl) (morpholino) methanone] |  |  |  |  |  |  | 181 | 6 |  |  |
| CCNS(=O)(=O)c1cccc(-n2c(C)cc(-c3nc4ncc(Br)c(N[C@H]5CCN(S(=O)(=O)CC)C5)c4[nH]3)c2C)c1 [Example 19, (S)-3-(3-(6-bromo-7-((1-(ethylsulfonyl)pyrrolidine-3-yl)amino)-1H-imidazo[4,5-b]pyridine-2-yl)-2,5-dimethyl-1H-pyrrol-1-yl)-N-ethylbenzenesulfonamide] |  |  |  |  |  |  | 90 | 14 |  | inhibition at 10 µM ([2]; U-937, 72 h): > 50%; inhibition at 10 µM ([5]; 72 h, read-out: Cancer cell proliferation inhibitory activity Jurkat): > 50%; inhibition at 10 µM ([9]; 72 h): > 50%; IC50 (MLK1): 36 nM |
| CCS(=O)(=O)N1CC[C@H](Nc2c(Br)cnc3nc(-c4cc(C)n(-c5ccc(OCCOC)cc5)c4C)[nH]c23)C1 [Example 22, (S)-6-bromo-N-(1-(ethylsulfonyl)pyrrolidine-3-yl)-2-(1-(4-(2-methoxyethoxy)phenyl)-2,5-dimethyl-1H-pyrrol-3-yl)-1H-imidazo[4,5-b]pyridine-7-amine] |  |  |  |  |  |  | 186 | 17 | 10 to 50 | IC50 (MLK1): 38 nM |
| Cc1cc(-c2nc3c(Nc4cccc(S(N)(=O)=O)c4)c(Br)cnc3[nH]2)c(C)n1-c1ccccc1Cl [Example 31, 3-((6-bromo-2-(1-(2-chlorophenyl)-2,5-dimethyl-1H-pyrrol-3-yl)-3H-imidazo[4,5-b]pyridine-7-yl)amino)benzenesulfonamide] | > 50 | 10 to 50 | < 10 | 10 to 50 | 10 to 50 | 10 to 50 |  | 35 | 10 to 50 |  |
| Cc1ccc(NS(C)(=O)=O)cc1-n1c(C)cc(-c2nc3c(Nc4cccc(S(N)(=O)=O)c4)c(Br)cnc3[nH]2)c1C [Example 33, 3-((6-bromo-2-(2,5-dimethyl-1-(2-methyl-5-(methylsulfonamido)phenyl)-1H-pyrrol-3-yl)-3H-imidazo[4,5-b]pyridine-7-yl)amino)benzenesulfonamide] | < 10 | < 10 | 10 to 50 | 10 to 50 | 10 to 50 | < 10 |  | 38 | 10 to 50 |  |
| Cc1cc(-c2nc3c(Nc4cccc(S(N)(=O)=O)c4)c(Br)cnc3[nH]2)c(C)n1-c1cc(Cl)ccc1Cl [Example 35, 3-((6-bromo-2-(1-(2,5-dichlorophenyl)-2,5-dimethyl-1H-pyrrol-3-yl)-3H-imidazo[4,5-b]pyridine-7-yl)amino)benzenesulfonamide] | > 50 | 10 to 50 | 10 to 50 | 10 to 50 | 10 to 50 | < 10 |  |  | 10 to 50 | IC50 (MLK3): 46 nM |
| Cc1cc(-c2nc3c(Nc4cccc(S(N)(=O)=O)c4)c(Br)cnc3[nH]2)c(C)n1-c1cccc(N2CCOCC2)c1 [Example 37, 3-((6-bromo-2-(2,5-dimethyl-1-(3-morpholinophenyl)-1H-pyrrol-3-yl)-3H-imidazo[4,5-b]pyridine-7-yl)amino)benzenesulfonamide] | > 50 | 10 to 50 | > 50 | 10 to 50 | 10 to 50 | < 10 |  | 47 | 10 to 50 |  |
| Cc1cc(-c2nc3ncc(Br)c(Nc4cccc(S(N)(=O)=O)c4)c3[nH]2)c(C)n1-c1cccc(OCCN2CCOCC2)c1 [Example 38, 3-((6-bromo-2-(2,5-dimethyl-1-(3-(2-morpholinoethoxy)phenyl)-1H-pyrrol-3-yl)-1H-imidazo[4,5-b]pyridine-7-yl)amino)benzenesulfonamide] | > 50 | 10 to 50 | 10 to 50 | > 50 | > 50 | > 50 |  | 52 | > 50 |  |
| Cc1cc(-c2nc3ncc(Br)c(Nc4cccc(S(N)(=O)=O)c4)c3[nH]2)c(C)n1-c1ccc(OCCN2CCOCC2)cc1 [Example 39, 3-((6-bromo-2-(2,5-dimethyl-1-(4-(2-morpholinoethoxy)phenyl)-1H-pyrrol-3-yl)-1H-imidazo[4,5-b]pyridine-7-yl)amino)benzenesulfonamide] | 10 to 50 | 10 to 50 | 10 to 50 | > 50 | < 10 | 10 to 50 |  | 72 | > 50 |  |
| Cc1cc(-c2nc3c(Nc4cccc(S(N)(=O)=O)c4)c(Br)cnc3[nH]2)c(C)n1-c1ccc(N2CCOCC2)cc1 [Example 40, 3-((6-bromo-2-(2,5-dimethyl-1-(4-morpholinophenyl)-1H-pyrrol-3-yl)-3H-imidazo[4,5-b]pyridine-7-yl)amino)benzenesulfonamide] | > 50 | 10 to 50 | 10 to 50 | > 50 | > 50 | 10 to 50 |  | 68 | 10 to 50 |  |
